# According to US9138457B2, “Therapeutic modulation of ocular surface lubrication” (THE REGENTS OF THE UNIVERSITY OF CALIFORNIA, priority 2008, dated 2015):
# Like-named read-outs stand apart in the source and are kept apart here.
# Test system: PRG4 mRNA
# Details: primary human corneal epithelial cells; for increase in PRG4 mRNA levels relative to the control levels at Day 0: 10 nM DHT
# Experimental: (§1) Cells were grown in keratinocyte serum free media until reaching about 80% confluence. Cells (n=3 wells/treatment/experiment) were then incubated with either vehicle or 10 nM dihydrotestosterone (DHT) for up to 5 days. At designated times cells were processed for total RNA isolation and analysis of PRG4 mRNA mRNA by RT-PCR.
# as §1, with “Methods. Cells were” for “Cells were”, “by RT-PCR. Results.” for “by RT-PCR.”
compound,measurement,setting,value
"C[C@]12CCC(=O)C[C@@H]1CC[C@@H]1[C@@H]2CC[C@]2(C)[C@@H](O)CC[C@@H]12 [DHT, dihydrotestosterone]",increase in PRG4 mRNA levels relative to the control levels at Day 0,3 days of hormone exposure,10.3 fold
same,increase in PRG4 mRNA levels relative to the control levels at Day 0,4 days of hormone exposure,3.6 fold
same,increase in PRG4 mRNA levels relative to the control levels at Day 0,5 days of hormone exposure,2.8 fold
same,increase in PRG4 mRNA content relative to that of vehicle-treated controls,"another experiment, treatment of cells for 5 days with DHT",46 fold
